US20210254056A1, “IDENTIFICATION AND TARGETED MODULATION OF GENE SIGNALING NETWORKS” (CAMP4 THERAPEUTICS CORPORATION, priority 2017, published 2021)
Entries after “also recorded” stand apart in the source; their conditions may differ.

Columns and labels:
[1] = test system: normal cord blood erythroblast cells; test: qRT-PCR after constitutive (pLKO) shRNA knockdown in normal CD34+ cells; type: cell-based, human; details: for RQ, ALAS2: relative quantification of ALAS2 expression vs control sh_NT; for RQ, BCLXL: relative quantification of BCLXL expression vs control sh_NT; for RQ, MYC: relative quantification of MYC expression vs control sh_NT; for RQ, P53: relative quantification of P53 expression vs control shNT; for RQ, RPL11: relative quantification of RPL11 expression vs control shNT; for RQ, p21: relative quantification of p21 expression vs control sh_NT; for RQ, p53: relative quantification of p53 expression vs control sh_NT; for increase in expression of p21: pLKO constitutive knockdown, compared to the level observed for the p53 knockdowns, qRT-PCR
Experimental: Conditionally immortalized cord blood CD34+ cells were transduced with the shRNA lentiviruses using the retronectin-transduction protocol (Clontech). Puromycin selection was performed 24-48 hours post-transduction. Cells were counted to monitor cell viability. After 12 days, which allowed for a large biomass, knockdown efficiency was analyzed. qRT-PCR was used to identify changes in mRNA, and Western blot was used to determine levels of protein depletion.
(§1) For RNA extraction, 1×10^6 cells were harvested in 500 μL of TRIZOL reagent (Thermo Scientific), and incubated for 5 minutes at room temperature. Then, 100 μL of chloroform was added to the cells, and the mixture was vortexed and then centrifuged at 12,000× gravity for 15 minutes. The aqueous phase was transferred to fresh tubes and one volume of 70% ethanol was added. The TRIZOL Plus RNA purification Kit (Thermo Scientific) was used for the remaining extraction protocol according to the manufacturer's instructions. For the conversion of RNA to cDNA the High Capacity cDNA RT kit (Thermo Scientific) was used according to the manufacturer's instructions. The cDNA was analyzed with qRT-PCR to determine the fold change of knockdown cells using Taqman Fast PCR mix and Applied Biosystems probes (Thermo Scientific).
shRNAs targeting RPS19, p53, or RPL11 were delivered to normal cord blood erythroblast cells using either the pLKO (constitutive) and pTRIPZ (inducible) plasmids described in Example 1. The mRNA expression of the p53 pathway proteins; progenitor factor GATA2; and differentiation factors HBB and GATA1 were measured by qRT-PCR. Cells not transduced with a shRNA as well as cells transduced with a non-targeting shRNA served as controls.
HBB is associated with differentiation of CD34^+ cells, and p21 is associated with the p53 pathway. […]
To determine the effect of p53 knockdown on expression of other genes, cells were also transduced with pLKO containing p53_sh4 or p53_sh5. To determine the effect of RPS19 knockdown on expression of other genes, cells were transduced with pLKO containing RPS19_sh1, RPS19_sh2, RPS19_sh3, RPS19_sh4, RPS19_sh5, and sh_NT as a control. The relative quantifications of expression of differentiation associated genes ALAS2 and HBB, immortalization factors BCLXL and MYC, and targets of interest p53 and RPS19 are shown in Table 79.

[2] = test system: CB-CI-IRES-CD34+ cell line; test: qRT-PCR and knockdown efficiency of shRNAs in conditionally immortalized cord blood CD34+ cells; type: cell-based, human; details: qRT-PCR; CB-CI-IRES-CD34+ cells transduced with pTRIPZ shRNA; B-ACTIN control; relative to pTRIPZ NT
Experimental: as §1
qRT-PCR was used to analyze expression of p53 pathway-associated genes p21, RPS19, and RPL11; differentiation marker HBB; and internal control B-ACTIN in the cord blood conditionally immortalized CD34+ (CB-CI-IRES-CD34+) cell line transduced with the pTRIPZ plasmid containing NT (Model 9), RPL11_sh1 (Model 4) and RPL11_sh2 (Model 5) for a RPL11 knockdown, and RPS19_sh1 (Model 6) and RPS19_sh2 (Model 7) for a RPS19 knockdown.
qRT-PCR was used to determine the levels of expression of ALAS2, GAPDH, GATA1, GATA2, HBB, and p53 in differentiated CB-CI-IRES cells using GAPDH as an internal control as shown in Table 86.
Gene expression was compared for CB-CI-IRES cells during expansion and differentiation. […] GAPDH was used as an internal control.
The efficiency of different shRNAs were tested in a conditionally immortalized cord blood erythroblast cell system to mimic DBA. The pTRIPZ was used to transduce these cells with sh1 (dox inducible shRPS19) or sh2 (dox inducible shRPS19), and pLKO was used to transduce a group of cells with sh5 (shRPS19). qRT-PCR was used to determine the level of gene expression in RPS19 mRNA knockdown in each group of cells. The percent of knockdown is shown in Table 90 after 1 week (T1), 2 weeks (T2), and 3 weeks (T3) for each shRNA.

hepatocytes = details: {}
TF1 RPS19 KD cells = test: Dose titration of compounds into RPS19 KD TF1 cells (p53 by qRT-PCR, viability ATP assay); type: cell-based; details: after transduction with constitutive pLKO shRNA plasmid
Experimental: The concentration of the compounds needed to observe a rescued DBA phenotype in TF1 RPS19 KD cells was determined via qRT-PCR analysis of p53 levels. […] Nine different cell lines were used. […] Cells were collected in separate tubes in a concentration of 1000 cells/μL to reach a concentration of 50,000 cells/50 μL per well. Cell were centrifuged at 1,200 rpm for 5 minutes. Then, the media was aspirated and cells were resuspended in RPMI+GCMSF medium.
For the preparation of Dose 1 (final concentration on plate 25 μM), a 50 μM solution was made by adding 300 μL of […] to 300 μL of RPM1+GCMSF+2% DMSO (final 1% DMSO). The 50 μM solution was further diluted to 2× when added with the cells into a well, resulting in a final concentration of 25 μM. […] DMSO 1% was used for each cell type as DMSO control.
A 96-well plate was used for analysis of each dose on each cell type. Fifty μL of each cell type and 50 μL of a diluted compound are added to the corresponding wells for a total of 100 μL RPMI+GCMSF+1% DMSO, with 50,000 cells/well. The following day, 50 μL for RNA (25,000 cells) and 50 μL for viability ATP assay (25,000 cells) were collected from each well.
Dose titration was performed as described in Example 1. […] Phenotype rescue was determined by measuring p53 levels by qRT-PCR analysis. […]

COL1A1 gene = test: RNA-seq gene expression after compound treatment, COL1A1; type: cell-based, human; details: FIG. 11B; gene implicated in liver fibrosis
Source text: FIG. 11B are ChIP-seq results for an insulated neighborhood and RNA-seq results showing modulation of the COL1A1 gene implicated in liver fibrosis by BIO inhibitor (MT-209), a Wnt pathway agonist.
(§2) In certain embodiments, hepatocytes are used to map a healthy cell population. The liver is a source of many known genetic disease and provides homogeneous primary tissue with high availability. Additionally, most toxicology is done in the liver, which provides drug toxicity insights. In some embodiments, different stimuli, such as those described herein, are contacted with a cell to induce various GSC responses in the hepatocytes. For example, small molecules may be administered to identify liver disease genes whose expression is modulated by the small molecules. These responses provide an understanding of GSCs in liver cells: genomic positions, protein composition, and genome architecture. Alternatively, blood or muscle tissue may be mapped as a healthy population, as a disease model, or as primary disease cells. About 20 million cells are generally needed for accurate ChIP (chromatin immunoprecipitation) analysis. Therefore, in some embodiments, erythroid cells may be used to develop a conditionally immortalized cell system to produce a sufficient biomass for ChIP analysis of a cell with a disease phenotype.

[3] = test system: primary human hepatocytes; test: RNA-seq of primary human hepatocytes treated with 39 small molecules (pilot and validation)
SLC37A4 gene = test: RNA-seq gene expression after compound treatment, insulated neighborhood containing SLC37A4; type: cell-based, human; details: FIG. 8; gene implicated in glycogen storage disease 1b
PCSK9 gene = test: RNA-seq gene expression after compound treatment, PCSK9; type: cell-based, human; details: FIG. 11C and FIG. 13; gene implicated in hypercholesterolemia
Source text: as §2

FKBP5 = test: RNA-seq gene expression after compound treatment, insulated neighborhood including FKBP5; type: cell-based, human; details: FIG. 11A; gene implicated in immunosuppression
Source text: as §2

[4] = relative quantification of HBB expression vs control shNT, pLKO constitutive shRNA, GAPDH internal control, Table 78
[5] = relative quantification of HBB expression vs control sh_NT, pLKO shRNA, B-ACTIN, Table 79
[6] = pLKO constitutive shRNA, GAPDH internal control, Table 78
[7] = relative quantification of RPS19 expression vs control shNT, pLKO constitutive shRNA, GAPDH internal control, Table 78
[8] = relative quantification of RPS19 expression vs control sh_NT, pLKO shRNA, B-ACTIN, Table 79

Compound | RQ, ALAS2 ([1]; pLKO shRNA, B-ACTIN, Table 79) | RQ, BCLXL ([1]; pLKO shRNA, B-ACTIN, Table 79) | RQ, HBB [1, 4] | RQ, HBB [1, 5] | RQ, MYC ([1]; pLKO shRNA, B-ACTIN, Table 79) | RQ, P53 [1, 6] | RQ, RPL11 [1, 6] | RQ, RPS19 [1, 7] | RQ, RPS19 [1, 8] | RQ, p21 ([1]; pLKO shRNA, B-ACTIN, Table 79) | RQ, p53 ([1]; pLKO shRNA, B-ACTIN, Table 79) | increase in expression of p21 [1] [fold] | Cell density (TF1 RPS19 KD cells) | further results
RPS19_sh1 (CTACGATGAGAACTGGTTCT; expressed or natural sequence; listed as Homo sapiens) | 0.02 | 0.34 | 0.04 | 0.00 | 0.52 | 1.34 | 0.74 | 0.59 | 0.47 | 0.53 | 0.65 | – | – | RQ of HBB [2]: 2.28; RQ of RPL11 [2]: 1.52; RQ of p21 [2]: 1.35
Cn1cncc1[C@@](N)(c1ccc(Cl)cc1)c1ccc2c(c1)c(-c1cccc(Cl)c1)cc(=O)n2C [Tipifarnib] | – | – | – | – | – | – | – | – | – | – | – | – | – | # of genes having significantly altered expression (hepatocytes): 34
RPS19_sh4: shRNA targeting RPS19 in the constitutive pLKO plasmid, SEQ ID NO 32575 (GCTTGCTCCCTACGATGAGAA; listed as Homo sapiens) | 0.16 | 0.87 | 0.42 | 0.03 | 1.03 | 1.24 | 1.02 | 1.54 | 0.43 | 12.78 | 1.74 | 12.8 | 124,000 cells/mll | –
O=C1Nc2cc(Br)ccc2/C1=C1/Nc2ccccc2/C1=N\O [BIO inhibitor] | – | – | – | – | – | – | – | – | – | – | – | – | – | expression of the COL1A1 gene (RNA-seq) (COL1A1 gene): modulation
RPS19_sh5: shRNA targeting RPS19 in the constitutive pLKO plasmid, SEQ ID NO 32576 (CGGCGTCATGCCCAGCCACTT; listed as Homo sapiens) | 1.51 | 0.99 | 0.75 | 0.15 | 1.43 | 1.41 | 1.09 | 0.65 | 0.15 | 5.75 | 0.74 | 5.8 | 962,000 cells/mll | –
C[C@]12C=CC(=O)C=C1CC[C@@H]1[C@@H]2C(=O)C[C@@]2(C)[C@H]1CC[C@]2(O)C(=O)CO [prednisone] | – | – | – | – | – | – | – | – | – | – | – | – | – | significant modulation of gene expression ([3]; RNA-seq, p-value≤0.05, primary human hepatocytes, the modulated genes are listed in the block): significantly (p-value≤0.05) modulate; gene upregulated by the compound ([3]; RNA-seq, treated cells compared to vehicle control, gene named in the value): upregulate the SLC37A4 gene; also recorded: SLC37A4 was significantly upregulated; also recorded: upregulate FKPP5; Number (#) of genes having significantly changed expression ([3]; pilot RNA-seq study of Example 2, significance: FPKM≥0.5, log 2(fold change)≥1, q-value ≤0.05): 247; expression of the SLC37A4 gene (RNA-seq) (SLC37A4 gene): upregulation; expression of the PCSK9 gene (RNA-seq) (PCSK9 gene): modulation; expression of FKBP5 (RNA-seq) (FKBP5): upregulates
